US9353062B2, “Substituted quinolines as bruton's tyrosine kinases inhibitors” (HangzhouDeRenYuCheng Biotechnology Ltd, priority 2012, dated 2016)

Legend:
Btk [1] = biological target: T1, Btk (Homo sapiens (Human), UniProt Q06187); experiment: Btk kinase assay, method A (33P-ATP radiometric); type: biochemical; conditions: 10 μM ATP
Protocol: (§1) An in vitro assay which determines the ability of a test compound to inhibit Btk.
a) Method A conducts the kinase assay with the following condition and procedure: Reagent: Base Reaction Buffer; 20 mM Hepes (pH 7.5), 10 mM MgCl2, 1 mM EGTA, 0.02% Brij35, 0.02 mg/ml BSA, 0.1 mM Na3VO4, 2 mM DTT, 1% DMSO.
1. Prepare indicated substrate in freshly prepared Base Reaction Buffer.
2. Deliver any required cofactors to the substrate solution obtained in step 1.
3. Deliver indicated kinase into the substrate solution prepared in step 2 and gently mix.
4. Deliver compounds in DMSO into the kinase reaction mixture prepared in step 3.
5. Deliver ^33P-ATP (specific activity 0.01 μCi/μl final) into the reaction mixture prepared in step 4 to initiate the reaction.
6. Incubate kinase reaction for 120 min. at room temperature.
7. Reactions are spotted onto P81 ion exchange paper (Whatman #3698-915).
8. Washing filters extensively in 0.75% Phosphoric acid.
Compounds were tested in 10-dose IC50 mode with 3-fold serial dilution starting at 10 μM; Reactions were carried out at 10 μM ATP.

Btk [2] = biological target: T1, Btk; experiment: Btk kinase assay, method B (Kinase-Glo Plus luminescence); type: biochemical; conditions: 10 μM ATP
Protocol: as §1
b) Method B conducts the kinase assay with the following condition and procedure: The assay was performed using Kinase-Glo Plus luminescence kinase assay kit (Promega). It measures kinase activity by quantitating the amount of ATP remaining in solution following a kinase reaction. The luminescent signal from the assay is correlated with the amount of ATP present and is inversely correlated with the amount of kinase activity.
The compounds were diluted in 10% DMSO and 5 μl of the dilution was added to a 50 μl reaction so that the final concentration of DMSO is 1% in all of reactions. All of the enzymatic reactions were conducted at 30° C. for 40 minutes. […] After the enzymatic reaction, 50 μl of Kinase-Glo Plus Luminescence kinase assay solution (Promega) was added to each reaction and incubate the plate for 5 minutes at room temperature. Luminescence signal was measured using a BioTek Synergy 2 microplate reader. […] The luminescence data were analyzed using the computer software, Graphpad Prism. The difference between luminescence intensities in the absence of Btk (Lut) and in the presence of Btk (Luc) was defined as 100% activity (Lut−Luc). […] The IC50 value was determined by the concentration causing a half-maximal percent activity. […]

[3] = tested on: BTK signaling in Ramos cells; experiment: Btk Ramos Cellular Assay (phosphorylation of BTK substrate PLCγ2); type: cell-based; conditions: 1 hour compound incubation, anti-human IgM stimulation, PLCγ2 phosphorylation blot, read-out: inhibition of BTK signaling in Ramos cells, IC50
Protocol: Ramos cells were grown in suspension in T225 flasks, spun down, resuspended in 50 mL serum-free media and incubated for 1 hour. Compound was added to Ramos cells in serum free media to a final concentration of 1, 0.1, 0.01, or 0.001 μM. Ramos cells were incubated with compound for 1 hour, washed again and resuspended in 100 μL serum-free media. Cells were then stimulated with 1 μg of goat F(ab′)2 Anti-Human IgM and incubated on ice for 10 minutes to activate B cell receptor signaling pathways. After 10 minutes, the cells were washed once with PBS and then lysed on ice with Invitrogen Cell Extraction buffer. Sixteen μg total protein from lysates was loaded on gels and blots were probed for phosphorylation of the BTK substrate PLCγ2.

T1 sequence (Q06187 whole entry, species assumed): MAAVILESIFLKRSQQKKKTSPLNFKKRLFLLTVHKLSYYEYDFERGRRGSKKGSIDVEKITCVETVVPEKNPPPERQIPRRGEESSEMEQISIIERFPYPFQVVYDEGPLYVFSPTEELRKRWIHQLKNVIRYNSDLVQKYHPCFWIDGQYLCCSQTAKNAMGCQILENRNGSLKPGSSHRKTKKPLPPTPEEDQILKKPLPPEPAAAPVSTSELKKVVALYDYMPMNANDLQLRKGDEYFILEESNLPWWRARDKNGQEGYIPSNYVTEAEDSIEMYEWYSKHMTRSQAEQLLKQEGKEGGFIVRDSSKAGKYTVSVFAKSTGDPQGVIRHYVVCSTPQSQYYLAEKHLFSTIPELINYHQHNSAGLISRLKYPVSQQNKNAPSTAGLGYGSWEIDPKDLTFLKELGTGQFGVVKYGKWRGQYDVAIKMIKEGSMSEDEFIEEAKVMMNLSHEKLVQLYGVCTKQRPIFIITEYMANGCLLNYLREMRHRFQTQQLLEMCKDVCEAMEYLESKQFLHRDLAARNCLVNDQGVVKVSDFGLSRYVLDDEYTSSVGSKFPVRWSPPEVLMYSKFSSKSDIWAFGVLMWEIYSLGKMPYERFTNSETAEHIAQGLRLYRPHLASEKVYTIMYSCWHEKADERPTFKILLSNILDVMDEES

Row | IC50 (Btk [1]) [µM] | IC50 (Btk [2]) [µM] | IC50 [3] [µM] | Structure (SMILES)
1 | 0.00064 | < 0.1 | < 0.1 | CCOc1cc2ncc(C#N)c(Nc3ccc(Oc4ccccc4)cc3)c2cc1NC(=O)/C=C/CN(C)C [Example 1, (E)-N-(3-cyano-7-ethoxy-4-((4-phenoxyphenyl)amino)quinolin-6-yl)-4-(dimethylamino)but-2-enamide]
2 | – | < 0.1 | – | CN(C)C/C=C/C(=O)Nc1ccc2ncc(C#N)c(Nc3ccc(Oc4ccccc4)cc3)c2c1 [Example 2, (E)-N-(3-cyano-4-((4-phenoxyphenyl)amino)quinolin-6-yl)-4-(dimethylamino)but-2-enamide]
